Reference: patent US9139574B2, “Tumor targeted drug combretastatin A4 derivative” (Nanjing Sanhome Pharmaceutical Co., Ltd., priority 2011, dated 2015)

Columns and labels:
NCI-H460 = test: MTT assay of anti-tumor activity, NCI-H460; type: cell-based; conditions: NCI-H460 cells
Description: (§1) The cells were digested and counted. The cell suspension was prepared in a concentration of 5×10^4 cells/ml. 100 μL of the cell suspension per well was added into 96-well plates (5×10^3 cells per well). The 96-well plates were placed in a 5% CO2 incubator at 37° C. for 24 hours. The drugs were diluted with the complete medium to the desired concentrations. 100 μL of the corresponding drug-containing medium was added into each well. Negative control group, vehicle control group and positive control group were set. The 96-well plates were placed in 5% CO2 incubator at 37° C. for 72 hours. The 96-well plates were subjected to a MTT assay, and measured OD value at λ=490 nm. The measurement procedure comprises adding 20 μL MTT (5 mg/ml) for each well, incubating for 4 hours in an incubator, discarding the medium, dissolving by adding 150 μL DMSO into each well, mixing uniformly by rocking gently for 10 minutes on a shaker, reading OD value of each well in a microplate reader at λ=490 nm. The inhibition rate was calculated, the results were recorded, and the anti-tumor activity was assessed.

K562 = test: MTT assay of anti-tumor activity, K562; type: cell-based; conditions: K562 cells
Description: as §1

MCF-7 = test: MTT assay of anti-tumor activity, MCF-7; type: cell-based; conditions: Homo sapiens, MCF7, 72 h, MCF-7 cells
Description: as §1

HCT-116 = test: MTT assay of anti-tumor activity, HCT-116; type: cell-based; conditions: Homo sapiens, HCT-116, 72 h, HCT-116 cells
Description: as §1

DU-145 = test: MTT assay of anti-tumor activity, DU-145; type: cell-based; conditions: Homo sapiens, DU-145, 72 h, DU-145 cells
Description: as §1

Row | melting point | SMILES | other results
1 | 169.7 to 172.1 °C | COc1cc(OC)cc(-c2nc[nH]c2-c2ccc(OC)c(O)c2)c1.O=P([O-])([O-])O.[Na+].[Na+] | –
2 | 100.8 to 102.6 °C | COc1ccc(-c2ocnc2-c2cc(OC)c(N)c(OC)c2)cc1F [CN01, 4-(3,5-dimethoxy-4-aminophenyl)-5-(3-fluoro-4-methoxyphenyl)oxazole] | –
3 | 184.7 to 187 °C | COc1ccc(-c2ocnc2-c2cc(OC)c(Br)c(OC)c2)cc1O [CN02, 4-(3,5-dimethoxy-4-bromophenyl)-5-(3-hydroxy-4-methoxyphenyl)oxazole] | –
4 | 161.3 to 162.8 °C | COc1ccc(-c2ocnc2-c2cc(OC)c(O)c(OC)c2)cc1F [CN03, 4-(3,5-dimethoxy-4-hydroxyphenyl)-5-(3-fluoro-4-methoxyphenyl)oxazole] | –
5 | 179.8 to 183.9 °C | COc1ccc(-c2ocnc2-c2cc(OC)c(Br)c(OC)c2)cc1N [CN04, 4-(3,5-dimethoxy-4-bromophenyl)-5-(3-amino-4-methoxyphenyl)oxazole] | –
6 | 101.2 to 102 °C | COc1ccc(-c2ocnc2-c2cc(OC)c(O)c(OC)c2)cc1N [CN05, 4-(3,5-dimethoxy-4-hydroxyphenyl)-5-(3-amino-4-methoxyphenyl)oxazole] | –
7 | 144.3 to 145.5 °C | COc1ccc(-c2ocnc2-c2cc(OC)c(O)c(OC)c2)cc1O [CN06, 4-(3,5-dimethoxy-4-hydroxyphenyl)-5-(3-hydroxy-4-methoxyphenyl)oxazole] | –
8 | 186.2 to 188.4 °C | COc1ccc(-c2ocnc2-c2cc(OC)c([N+](=O)[O-])c(OC)c2)cc1O [CN07, 4-(3,5-dimethoxy-4-nitrophenyl)-5-(3-hydroxy-4-methoxyphenyl)oxazole] | –
9 | 126 to 129.6 °C | COc1ccc(-c2ocnc2-c2cc(OC)c(N)c(OC)c2)cc1O [CN08, 4-(3,5-dimethoxy-4-aminophenyl)-5-(3-hydroxy-4-methoxyphenyl)oxazole] | –
10 | 100.8 to 102.6 °C | COc1ccc(-c2[nH]cnc2-c2cc(OC)c(N)c(OC)c2)cc1F [CN10, 4-(3,5-dimethoxy-4-aminophenyl)-5-(3-fluoro-4-methoxyphenyl) imidazole] | –
11 | 184.7 to 187 °C | COc1ccc(-c2[nH]cnc2-c2cc(OC)c(Br)c(OC)c2)cc1O [CN11, 4-(3,5-dimethoxy-4-bromophenyl)-5-(3-hydroxy-4-methoxyphenyl) imidazole] | –
12 | 124.7 to 127 °C | COc1ccc(-c2[nH]cnc2-c2cc(OC)c(O)c(OC)c2)cc1F [CN12, 4-(3,5-dimethoxy-4-hydroxyphenyl)-5-(3-fluoro-4-methoxyphenyl) imidazole] | –
13 | 159.7 to 162 °C | COc1ccc(-c2[nH]cnc2-c2cc(OC)c(Br)c(OC)c2)cc1N [CN13, 4-(3,5-dimethoxy-4-bromophenyl)-5-(3-amino-4-methoxyphenyl)imidazole] | –
14 | 148.5 to 149.9 °C | COc1ccc(-c2[nH]cnc2-c2cc(OC)c(O)c(OC)c2)cc1N [CN14, 4-(3,5-dimethoxy-4-hydroxyphenyl)-5-(3-amino-4-methoxyphenyl)imidazole] | –
15 | 171.5 to 173 °C | COc1ccc(-c2[nH]cnc2-c2cc(OC)c(O)c(OC)c2)cc1O [CN15, 4-(3,5-dimethoxy-4-hydroxyphenyl)-5-(3-hydroxy-4-methoxyphenyl)imidazole] | –
16 | 147.7 to 149 °C | COc1ccc(-c2[nH]cnc2-c2cc(OC)c([N+](=O)[O-])c(OC)c2)cc1O [CN16, 4-(3,5-dimethoxy-4-nitrophenyl)-5-(3-hydroxy-4-methoxyphenyl)imidazole] | –
17 | 141.8 to 143.7 °C | COc1ccc(-c2[nH]cnc2-c2cc(OC)c(N)c(OC)c2)cc1O [CN17, 4-(3,5-dimethoxy-4-aminophenyl)-5-(3-hydroxy-4-methoxyphenyl) imidazole] | –
18 | 139.7 to 142.1 °C | COc1ccc(-c2[nH]cnc2-c2cc(OC)c(N)c(OC)c2)cc1N [CN19, 4-(3,5-dimethoxy-4-aminophenyl)-5-(3-amino-4-methoxyphenyl) imidazole] | –

Row | melting point | SMILES | other results
19 | 139.7 to 142.1 °C | COc1ccc(-c2ocnc2-c2cc(OC)c(F)c(OC)c2)cc1N [CN20, 4-(3,5-dimethoxy-4-fluorophenyl)-5-(3-amino-4-methoxyphenyl)oxazole] | –
20 | 146.2 to 148.1 °C | COc1ccc(-c2ocnc2-c2cc(OC)c(Cl)c(OC)c2)cc1N [CN21, 4-(3,5-dimethoxy-4-chlorophenyl)-5-(3-amino-4-methoxyphenyl)oxazole] | –
21 | 167.9 to 170.2 °C | COc1ccc(-c2ocnc2-c2cc(OC)c(OC(F)(F)F)c(OC)c2)cc1N [CN23, 4-(3,5-dimethoxy-4-trifluoromethoxyphenyl)-5-(3-amino-4-methoxyphenyl)oxazole] | –
22 | 157 to 158.4 °C | COc1cc(OC)cc(-c2ncn(-c3cc(OC)c(OC)c(OC)c3)c2-c2ccc(OC)c(F)c2)c1 [Compound C091, 5-(3-fluoro-4-methoxyphenyl)-4-(3,5-dimethoxyphenyl)-1-(3,4,5-trimethoxyphenyl)imidazole] | –
23 | 215 to 217 °C | COc1cc(-c2ncn(-c3ccc(C(F)(F)F)cc3)c2-c2ccc(N(C)C)cc2)cc(OC)c1OC [Compound C092, 5-(4-dimethylaminophenyl)-4-(3,4,5-trimethoxyphenyl)-1-(4-trifluoromethylphenyl)imidazole] | –
24 | 159.5 to 161 °C | COc1ccc(-c2ncn(-c3cc(OC)c(OC)c(OC)c3)c2-c2cc(OC)c(OC)c(OC)c2)cc1OC [Compound C104, 5-(3,4,5-trimethoxyphenyl)-4-(3,4-dimethoxyphenyl)-1-(3,4,5-trimethoxyphenyl)imidazole] | –
25 | – | COc1ccc(-c2c(-c3cc(OC)c(OC)c(OC)c3)ncn2-c2cc(OC)c(OC)c(OC)c2)cc1O [Compound C105, 5-(3-hydroxy-4-methoxyphenyl)-4-(3,4,5-trimethoxyphenyl)-1-(3,4,5-trimethoxyphenyl)imidazole] | IC50 (NCI-H460; Homo sapiens, NCI-H460, 72 h): 0.021 µM; IC50 (K562; Homo sapiens, K562, 72 h): 0.0089 µM; IC50 (MCF-7): 0.021 µM; IC50 (HCT-116): 0.151 µM
26 | 168.8 to 170.9 °C | COc1cc(-c2ncn(-c3cc(OC)c(OC)c(OC)c3)c2-c2cc(OC)c(OC)c(OC)c2)cc(OC)c1OC [Compound C107, 5-(3,4,5-trimethoxyphenyl)-4-(3,4,5-trimethoxyphenyl)-1-(3,4,5-trimethoxyphenyl)imidazole] | –
27 | 140.1 to 143.2 °C | COc1cc(OC)cc(-c2ncoc2-c2ccc(NC(C)=O)cc2)c1 [Compound C109, 5-(4-acetamidophenyl)-4-(3,5-dimethoxyphenyl)oxazole] | –
28 | 142 to 146 °C | COc1cc(OC)cc(-c2ncoc2-c2ccc(N)cc2)c1 [Compound C112, 4-(3,5-dimethoxyphenyl)-5-(4-aminophenyl)oxazole] | –
29 | 111.7 to 113.5 °C | COc1cc(OC)cc(-c2ncoc2-c2ccc(N(C)C)c(N)c2)c1 [Compound C113, 4-(3,5-dimethoxyphenyl)-5-(3-amino-4-dimethylaminophenyl)oxazole] | –
30 | 149.9 to 151.6 °C | COc1cc(OC)cc(-c2ncoc2-c2cc(N)c(OC)cc2N)c1 [Compound C119, 4-(3,5-dimethoxyphenyl)-5-(2,5-diamino-4-methoxyphenyl)oxazole] | –
31 | – | COc1cc(OC)cc(-c2nc[nH]c2-c2ccc(N(C)C)cc2)c1 [Compound C130, 4-(3,5-dimethoxyphenyl)-5-(4-dimethylaminophenyl)imidazole] | IC50 (NCI-H460; Homo sapiens, NCI-H460, 72 h): 0.35 µM; IC50 (NCI-H460; 72 hours): > 0.3 µM; IC50 (K562; Homo sapiens, K562, 72 h): 0.023 µM; IC50 (K562; 72 hours): 0.0213 µM; IC50 (HCT-116): 0.025 µM
32 | – | COc1cc(OC)cc(-c2ncn(C)c2-c2ccc(OC(F)(F)F)c(N)c2)c1 [Compound C132, 4-(3,5-dimethoxyphenyl)-5-(3-amino-4-trifluoromethoxyphenyl)-1-methylimidazole] | IC50 (NCI-H460; Homo sapiens, NCI-H460, 72 h): 0.0901 µM; IC50 (K562; Homo sapiens, K562, 72 h): 0.0045 µM; IC50 (MCF-7): 0.0078 µM; IC50 (DU-145): > 0.3 µM; IC50 (HCT-116): 0.052 µM
33 | – | COc1cc(OC)cc(-c2ncoc2-c2ccc(OC(F)(F)F)c(O)c2)c1 [Compound C142, 4-(3,5-dimethoxyphenyl)-5-(3-hydroxy-4-trifluoromethoxyphenyl)oxazole] | IC50 (NCI-H460; Homo sapiens, NCI-H460, 72 h): 0.062 µM; IC50 (K562; Homo sapiens, K562, 72 h): 0.0042 µM; IC50 (MCF-7): 0.0113 µM; IC50 (DU-145): 0.0041 µM; IC50 (HCT-116): 0.416 µM
34 | – | COc1cc(OC)cc(-c2nc[nH]c2-c2ccc(OC)c(N)c2O)c1 [Compound C146, 4-(3,5-dimethoxyphenyl)-5-(2-hydroxy-3-amino-4-methoxyphenyl)imidazole] | IC50 (K562; Homo sapiens, K562, 72 h): 0.0061 µM; IC50 (MCF-7): 0.0093 µM; IC50 (DU-145): > 0.3 µM; IC50 (HCT-116): 0.289 µM
35 | – | COc1cc(OC)cc(-c2nc[nH]c2-c2ccc(OC(F)(F)F)c(N)c2)c1 [Compound C152, 4-(3,5-dimethoxyphenyl)-5-(3-amino-4-trifluoromethoxyphenyl)imidazole] | IC50 (NCI-H460; Homo sapiens, NCI-H460, 72 h): > 0.3 µM; IC50 (K562; Homo sapiens, K562, 72 h): 0.0068 µM; IC50 (MCF-7): 0.0102 µM; IC50 (HCT-116): 0.034 µM
36 | 175 to 178 °C | COc1cc(OC)cc(-c2ncoc2-c2ccc3c(c2)NCCO3)c1 [Compound C255, 4-(3,5-dimethoxyphenyl)-5-(6-benzomorpholinyl)oxazole] | –
